Source: US9434994B2, “Methods for prediction of clinical outcome to epidermal growth factor receptor inhibitors by non-small cell lung cancer patients” (The Regents of the University of Colorado, a body corporate, priority 2004, dated 2016)
Several values for one entry are separate records, joined by “and”; a condition that tells them apart may be missing. Equal values may be shown once. Read-outs that look alike come from different tables or passages of the source.

System: advanced non-small-cell lung cancer patients
[1] = EGFR FISH Group 1 (disomy to low polysomy)
[2] = EGFR FISH Group 2 (high polysomy, amplification)
[3] = EGFR FISH- and/or P-Akt- (any negative)
[4] = EGFR IHC- and/or P-Akt- (any negative)
[5] = EGFR mutation- and/or P-Akt- (any negative)
[6] = HER2 FISH+ and/or EGFR IHC+ (other three groups combined)

Protocol: Eligibility included histologically confirmed NSCLC patients with measurable, locally advanced or metastatic disease, who had progressed or relapsed after chemotherapy, and patients ineligible for chemotherapy because they were elderly, had poor performance status, or comorbid medical condition. Before trial inclusion, smoking status was assessed and patients were classified as never, former (smoking cessation >6 months prior to trial inclusion), or current smokers (cessation <6 months before trial inclusion or active smoker).
Patients were evaluated for response according to the RECIST criteria (30). Tumor response was assessed by computer tomography scan every two months, with a confirmatory evaluation to be repeated in responding patients at least 4 weeks after the initial determination of response. […] Survival (OS) was calculated from the date of therapy initiation to the date of death or last contact.
Differences between the FISH groups were compared by Fisher's exact test or χ^2 test for qualitative variables and by t-student test or ANOVA for continuous variables. Normality of the distribution was assessed by Kolmogorov-Smirnov test. […] Risk factors associated with survival were evaluated using Cox's proportional-hazards regression model with a step-down procedure (33). Only those variables with significant results in univariate analysis were included in the multivariate analysis. The criteria for variable removal was the likelihood ratio statistic based on the maximum partial likelihood estimated (default p-value=0.10 for removal from the model).
Complete clinical information and tissue blocks were available from 80 out of 106 patients enrolled in the Akt clinical trial (Cappuzzo et al., ibid.), and from an additional 22 patients in the Expanded Access Study who were treated consecutively at the end of the Akt study and followed in the same way as patients in the Akt trial.
Eligibility for both studies included histologically confirmed NSCLC with measurable, locally advanced or metastatic disease, progressing or relapsing after chemotherapy or with medical contraindications for chemotherapy. Patients had performance status ranging from grade 0 to 2. Performance status was defined according to Eastern Cooperative Oncology Group (Oken et al., 1982) and considered grade 0 when the patient was fully active and able to perform all pre-disease activities without restriction, grade 1 when the patient was restricted in physically strenuous activity but ambulatory and able to perform work of a light or sedentary nature, and grade 2 when the patient was ambulatory and capable of all self-care but unable to perform any work activities.
Tumor response was assessed by computer tomography scan after 2 months, with a confirmatory evaluation to be repeated in responders and in patients with stable disease at least 4 weeks after the initial determination of response. […] Survival was calculated from the date of therapy initiation to the date of death or to the date of last contact.
Differences between and among groups were compared using Fisher's exact test or Pearson's chi square test for qualitative variables and using student's t test or analysis of variance for continuous variables. Normality of the distribution was assessed using the Kolmogorov-Smirnov test (Curiel et al., 1990).

COc1cc2ncnc(Nc3ccc(F)c(Cl)c3)c2cc1OCCCN1CCOCC1 [gefitinib]
Patients progressed at 12 months (EGFR FISH Group 1): 91% | Two-year survival rate (EGFR FISH Group 1): 17% | % Patients without disease progression at 12 months [1]: 8.7% | Complete and Partial Response [1]: 2.9% | Median Time to Progression [1]: 2.5 months | One-year Survival Rate [1]: 36.2% | Progressive Disease [1]: 73.9% | Stable Disease [1]: 23.2% | Patients progressed at 12 months (EGFR FISH Group 2): 61% | Two-year survival rate (EGFR FISH Group 2): 40% | % Patients without disease progression at 12 months [2]: 39.4% | Complete and Partial Response [2]: 36% and 36.4% | Disease Control Rate [2]: 66.7% | Median Time to Progression [2]: 6.3 months | One-year Survival Rate [2]: 63.6% | Progressive Disease [2]: 33.3% | Stable Disease [2]: 30.3% | % Patients without disease progression at 12 months (EGFR FISH disomy): 8.3% | Complete and Partial Response (EGFR FISH disomy): no responders | Median Time to Progression (EGFR FISH disomy): 2.5 months | One-year Survival Rate (EGFR FISH disomy): 38.9% | Progressive Disease (EGFR FISH disomy): 75% | Stable Disease (EGFR FISH disomy): 25.0% | % Patients without disease progression at 12 months (EGFR FISH high polysomy): 35.0% | Disease Control Rate (EGFR FISH high polysomy): 60.0% | Median Time to Progression (EGFR FISH high polysomy): 6.6 months | One-year Survival Rate (EGFR FISH high polysomy): 65.0% | Progressive Disease (EGFR FISH high polysomy): 40% | Stable Disease (EGFR FISH high polysomy): 35% | % Patients without disease progression at 12 months (EGFR FISH high trisomy): 100% | Complete and Partial Response (EGFR FISH high trisomy): 100% | Disease Control Rate (EGFR FISH high trisomy): 100% | Median Overall Survival (EGFR FISH high trisomy): 13.7 months | One-year Survival Rate (EGFR FISH high trisomy): 100% | % Patients without disease progression at 12 months (EGFR FISH low polysomy): 0% | Complete and Partial Response (EGFR FISH low polysomy): no responders | Disease Control Rate (EGFR FISH low polysomy): 14.3% | Median Overall Survival (EGFR FISH low polysomy): 3.0 months | Median Time to Progression (EGFR FISH low polysomy): 2.1 months | Progressive Disease (EGFR FISH low polysomy): 86% and 85.7% | Stable Disease (EGFR FISH low polysomy): 14.3% | % Patients without disease progression at 12 months (EGFR FISH low trisomy): 5.9% | Complete and Partial Response (EGFR FISH low trisomy): no responders | Disease Control Rate (EGFR FISH low trisomy): 29.4% | Median Overall Survival (EGFR FISH low trisomy): 10.2 months | Median Time to Progression (EGFR FISH low trisomy): 3.6 months | One-year Survival Rate (EGFR FISH low trisomy): 41.2% | Progressive Disease (EGFR FISH low trisomy): 71% and 70.6% | Stable Disease (EGFR FISH low trisomy): 29.4% | 1-year Cumulative Survival ± SD (EGFR FISH+/P-Akt+): 33 ± 9% | Median Survival (EGFR FISH+/P-Akt+): 18.7 months | 1-year Cumulative Survival ± SD (EGFR FISH+/P-Akt-): 75 ± 22% | Median Time to Progression (EGFR FISH+/P-Akt-): 1.1 months | Objective Response (EGFR FISH+/P-Akt-): 0% | Disease Control Rate [3]: 28% and 19/27% | Median Time to Progression [3]: 2.5 months | Objective Response [3]: 3% and 2/3% | Median Time to Progression (EGFR FISH-/P-Akt+): 2.6 months | Objective Response (EGFR FISH-/P-Akt+): 5% and 2/5% | 1-year Cumulative Survival ± SD (EGFR FISH-/P-Akt-): 57 ± 9% | Disease Control Rate (EGFR FISH-/P-Akt-): 6/22% | Median Time to Progression (EGFR FISH-/P-Akt-): 2.4 months | Objective Response (EGFR FISH-/P-Akt-): 0% | 1-year survival (EGFR IHC score 0-99): 27% and 27 ± 10% | MS (median overall survival) (EGFR IHC score 0-99): 4.5 mo | PD (progressive disease) (EGFR IHC score 0-99): 19 (95%) | TTP (EGFR IHC score 0-99): 2.1 mo | 1-year survival (EGFR IHC score 100-199): 35% and 35 ± 10% | MS (median overall survival) (EGFR IHC score 100-199): 5.3 mo | OR (objective response) (EGFR IHC score 100-199): 2 (10%) | TTP (EGFR IHC score 100-199): 2.3 mo | MS (median overall survival) (EGFR IHC score 200-299): 15.2 mo | OR (objective response) (EGFR IHC score 200-299): 4 (26%) | PD (progressive disease) (EGFR IHC score 200-299): 5 (33%) | MS (median overall survival) (EGFR IHC score 300-400): 11.3 mo | PD (progressive disease) (EGFR IHC score 300-400): 21 (49%) | TTP (EGFR IHC score 300-400): 4.5 mo | 1-year survival (EGFR IHC+ (≧200)): 48 ± 7% | MS (median overall survival) (EGFR IHC+ (≧200)): 11.5 mo | TTP (EGFR IHC+ (≧200)): 5.2 mo | Median Time to Progression (EGFR IHC+/P-Akt+): 6.2 months | 1-year Cumulative Survival ± SD (EGFR IHC+/P-Akt-): 35 ± 12% | Median Time to Progression (EGFR IHC+/P-Akt-): 1.8 months | Objective Response (EGFR IHC+/P-Akt-): 0% | 1-year survival (EGFR IHC- (<200)): 31 ± 7% | MS (median overall survival) (EGFR IHC- (<200)): 5.0 mo | TTP (EGFR IHC- (<200)): 2.3 mo | 1-year Cumulative Survival ± SD [4]: 35 ± 7% | Median Time to Progression [4]: 2.3 months | Objective Response [4]: 4% and 2/3% | Disease Control Rate (EGFR IHC-/P-Akt+): 7/27% | Median Time to Progression (EGFR IHC-/P-Akt+): 2.3 months | Objective Response (EGFR IHC-/P-Akt+): 2/8% | 1-year Cumulative Survival ± SD (EGFR IHC-/P-Akt-): 54 ± 8% | Disease Control Rate (EGFR IHC-/P-Akt-): 1/7% | Median Survival (EGFR IHC-/P-Akt-): 4.2 months | Median Time to Progression (EGFR IHC-/P-Akt-): 2.0 months | Objective Response (EGFR IHC-/P-Akt-): 0% | Median Survival (EGFR Mutation+/P-Akt+): 20.8 months | Median Time to Progression (EGFR Mutation+/P-Akt+): 11.2 months | Disease Control Rate (EGFR Mutation+/P-Akt-): 0% | Median Survival (EGFR Mutation+/P-Akt-): 3.1 months | Median Time to Progression (EGFR Mutation+/P-Akt-): 1.1 months | Objective Response (EGFR Mutation+/P-Akt-): 0% | 1-year Cumulative Survival ± SD (EGFR Mutation-/P-Akt+): 50 ± 35% | Median Time to Progression (EGFR Mutation-/P-Akt+): 2.7 months | Objective Response (EGFR Mutation-/P-Akt+): 4/9% | 1-year Cumulative Survival ± SD (EGFR Mutation-/P-Akt-): 65 ± 14% | Disease Control Rate (EGFR Mutation-/P-Akt-): 6/22% | Median Time to Progression (EGFR Mutation-/P-Akt-): 2.4 months | Objective Response (EGFR Mutation-/P-Akt-): 0% | % Patients without disease progression at 12 months (EGFR gene amplification): 46.2% | Complete and Partial Response (EGFR gene amplification): 53.8% and 54% | Disease Control Rate (EGFR gene amplification): 76% and 76.9% | Median Time to Progression (EGFR gene amplification): 6.0 months | One-year Survival Rate (EGFR gene amplification): 61.5% | Progressive Disease (EGFR gene amplification): 23.1% | Stable Disease (EGFR gene amplification): 23.1% | 1-year survival (EGFR mutation absent): 38 ± 6 | PD (EGFR mutation absent): 50 (68%) | TTP (EGFR mutation absent): 2.6 mo | 1-year survival (EGFR mutation present): 57 ± 13 | MS (EGFR mutation present): 20.8 mo | TTP (EGFR mutation present): 9.9 mo | Disease Control Rate [5]: 32% and 23/31% | Median Time to Progression [5]: 2.6 months | Objective Response [5]: 6% and 4/5% | DCR (HER2 FISH+): 56.5% | OR (HER2 FISH+): 34.8% | OS (HER2 FISH+): 20.8 months | TTP (HER2 FISH+): 9.05 months | DCR (HER2 FISH+ and/or EGFR FISH+): 57.1% | OR (HER2 FISH+ and/or EGFR FISH+): 28.6% | DCR [6]: 51.5% | OR [6]: 19.1% | OR (HER2 FISH+ and/or EGFR mutation+ (other groups combined)): 30.8% | DCR (HER2 FISH+/EGFR FISH+): 76.9% | OR (HER2 FISH+/EGFR FISH+): 53.8% | median OS (HER2 FISH+/EGFR FISH+): 20.8 months | median TTP (HER2 FISH+/EGFR FISH+): 9.8 months | OR (HER2 FISH+/EGFR FISH-): 21.0% | median TTP (HER2 FISH+/EGFR FISH-): 2.3 months | DCR (HER2 FISH+/EGFR IHC+): 76.9% | OR (HER2 FISH+/EGFR IHC+): 53.8% | OS (HER2 FISH+/EGFR IHC+): 20.8 months
